From paper PMC6270821, “ROS-Mediated Cytotoxic Effect of Copper(II) Hydrazone Complexes against Human Glioma Cells” (Molecules, 2014) come the findings set out here.

Some results are limits rather than exact numbers.

In one experiment the test system is EB-CT-DNA. Briefly: Competitive binding with EB bound to CT-DNA (fluorescence). The settings on record: for apparent binding constant Kapp (EB-CT-DNA): KEB 1.0 × 10^7 M^−1, [EB] = 10 µM; for number of binding sites n (EB-CT-DNA): Scatchard equation; for Stern-Volmer quenching constant Ksv (EB-CT-DNA) / binding constant K (EB-CT-DNA, Scatchard) / hypochromism in the EB-CT-DNA emission band at 602 nm: Tris-HCl pH 7.20, 25 °C; for hypochromism in the EB-CT-DNA emission band at 602 nm: complex up to 100 µM. Also on record: species or system calf. As to the method:
Steady-state competitive binding experiments using complexes 1 and 2were undertaken to get further proof for the binding of the complexes to DNA. The technique is based on the decrease of EB fluorescence resulting from the competitive displacement of EB from a DNA groove by a compound that competes for the same site.
The quenching data were analyzed by the Stern-Volmer equation: F0/F = Ksv[Q] + 1 (2) where F0 is the emission intensity in the absence of quencher, F is the emission intensity in the presence of quencher, Ksv is the quenching constant, and [Q] is the quencher concentration. The Ksv value is obtained as a slope from the plot of F0/F vs. [Q] [34].
The apparent binding constants (Kapp) were calculated from Equation (3): KEB [EB] = Kapp [complex] (3) where KEB is 1.0 × 10^7 M^−1, [EB] = 10 µM, and [complex] is the complex concentration when the fluorescence intensity of EB is 50%. This value is obtained from the plot F0/F vs. [complex] when F0/F = 2.
The binding constants (K) were calculated by the Scatchard Equation (4) (see Figure 6): log[(F0 − F)/F] = logK + nlog[Q] (4) where F0 and F are the fluorescence intensities of EB in the absence and presence of compound; [Q] is the compound concentration; K is the binding constant of compound with EB and n is the number of binding sites. K is the antilog of the intercept and n is the slope obtained from the plot of log[(F0 − F)/F] vs. […].
The affinity of the complexes for DNA was evaluated by a fluorescence technique using ethidium bromide (EB) bound to CT-DNA (EB-CT-DNA) solution in Tris-HCl buffer (pH = 7.20). EB is a planar cationic dye which is widely used as a sensitive fluorescence probe for native DNA. EB emits intense fluorescent light in the presence of DNA due to its strong intercalation between the adjacent DNA base-pairs. The changes in the fluorescence intensity at 602 nm (excitation at 545 nm) of EB-CT-DNA were measured with respect to the concentration of the copper(II) complexes. In fact, when it is removed, EB is non-emissive in Tris-HCl buffer solution (pH = 7.20), due to fluorescence quenching of the free EB by solvent molecules.

The test system of the next experiment is pUC 19 plasmid DNA. The experiment in a line: Agarose gel electrophoresis of supercoiled plasmid DNA. Details: species or system Escherichia coli. The settings on record: 100 µM, Tris-HCl pH 7.20, 37 °C, 24 h. Here is the method: Studies of interactions between the compounds under study and supercoiled plasmid DNA by agarose gel electrophoresis were carried out. Thus, 136 ng of purified plasmid DNA-pUC 19 from Escherichia coli (Sigma-Aldrich Brasil, São Paulo, Brazil) were incubated with compounds 1, 2 and cisplatin at 100 µM in Tris-HCl buffer (NaCl 50 mM, Tris-HCl 5 mM, pH = 7.20). The mixture was incubated at 37 °C for 24 h. Thereafter, the reactions were quenched by adding 5 µL of the loading buffer solution (50 mM Tris, pH 7.20, 0.01% bromophenol blue, 50% glycerol, and 250 mM EDTA). The samples were analyzed by 1% agarose gel electrophoresis in 0.5 × TBE buffer for 1 h 40 min at […]. The gel was stained after electrophoresis in 0.5× TBE buffer with 2.5 µg·mL^−1 ethidium bromide for 15 min and visualized by UV light.

Experiment [1] has as its target T1, bovine serum albumin (BSA) (Bos taurus, UniProt P02769).
T1 construct: purchased Sigma-Aldrich Brasil
Briefly: Synchronous fluorescence spectra of BSA. Type of experiment: binding. The settings on record: 1.0 µM BSA, up to 10.0 µM compound; for decrease of BSA synchronous fluorescence intensity at Δλ = 60 nm: tryptophan residues; for decrease of BSA synchronous fluorescence intensity at Δλ = 15 nm: tyrosine residues. As to the method: Synchronous fluorescence spectroscopy is a very useful method to study the changes in the microenvironment of tyrosine and tryptophan amino acid residues in BSA [39]. The spectra were measured after and before the addition of test compounds. The synchronous fluorescence of BSA is characteristic of tyrosine residues when the difference between excitation and emission wavelength Δλ value is 15 nm and characteristic of tryptophan residues if Δλ value is 60 nm. […] In both cases, a decrease in emission intensity of BSA with increasing complex concentration was observed. […] In the spectra at Δλ = 60 nm, an important decrease of the BSA fluorescence intensity (~41% for 1 and ~44% for 2) accompanied by a small blue shift of 1nm occurs.
The binding of the copper(II) complexes to BSA was studied using fluorescence spectra. The emission spectra were recorded in the 295–600 nm range with excitation at 280 nm. The excitation and emission slit widths and scan rates were constantly maintained for all the experiments. BSA solution (1.0 µM) was titrated by successive additions of a stock solution of the complexes (50 mM) using a micropipette. All experiments were performed at 298 K. The synchronous fluorescence spectra of BSA varying the concentration of 1 and 2 were recorded at ∆λ (difference between excitation and emission wavelength) = 15 nm and ∆λ = 60 nm.

Another experiment has as its system U87 cells. The experiment in a line: ROS generation, DCFH-DA assay, U87 cells. Type of experiment: cell-based, human. The following applies: 1 × 10^−5 mol/L, 24 h. The source says: (§1) To examine the effects of H2AcMe, H2BzMe and their complexes 1 and 2 on the generation of free radicals (reactive oxygen species, ROS), we used the 2',7'-dichlorodihydrofluorescein diacetate (DCFH-DA) assay.
(§2) ROS accumulation was detected using dichlorodihydrofluorescein diacetate (DCFH-DA, Sigma). DCFH-DA is a non-fluorescent compound, that when it is taken up by passive diffusion into the cells, is hydrolyzed by esterases to yield non-permeable DCFH. In the presence of ROS, DCFH is oxidized to the fluorescent DCF. Tumor cells were treated with the compounds for 24 h and were then incubated with DCFH-DA (1 × 10^−5 mol·L^−1) for 30 min at 37 °C. Following incubation, the cells were washed twice with PBS. Thereafter, the cells were observed under the fluorescent microscope Zeiss Axionplan coupled with a digital camera at excitation and emission wavelengths of 488 and 525 nm, respectively. Data were analyzed using ImageJ (ImageJ, National Institute of Health, Bethesda, MD, USA) and expressed as percentages of DCFDA fluorescence of the corresponding control.

Another experiment has as its system MRC5 cells. Briefly: ROS generation, DCFH-DA assay, MRC5 cells. The format is cell-based, human. The settings on record: 1 × 10^−5 mol/L, 24 h.
Description: as §1, §2

T1 sequence (P02769 25-607): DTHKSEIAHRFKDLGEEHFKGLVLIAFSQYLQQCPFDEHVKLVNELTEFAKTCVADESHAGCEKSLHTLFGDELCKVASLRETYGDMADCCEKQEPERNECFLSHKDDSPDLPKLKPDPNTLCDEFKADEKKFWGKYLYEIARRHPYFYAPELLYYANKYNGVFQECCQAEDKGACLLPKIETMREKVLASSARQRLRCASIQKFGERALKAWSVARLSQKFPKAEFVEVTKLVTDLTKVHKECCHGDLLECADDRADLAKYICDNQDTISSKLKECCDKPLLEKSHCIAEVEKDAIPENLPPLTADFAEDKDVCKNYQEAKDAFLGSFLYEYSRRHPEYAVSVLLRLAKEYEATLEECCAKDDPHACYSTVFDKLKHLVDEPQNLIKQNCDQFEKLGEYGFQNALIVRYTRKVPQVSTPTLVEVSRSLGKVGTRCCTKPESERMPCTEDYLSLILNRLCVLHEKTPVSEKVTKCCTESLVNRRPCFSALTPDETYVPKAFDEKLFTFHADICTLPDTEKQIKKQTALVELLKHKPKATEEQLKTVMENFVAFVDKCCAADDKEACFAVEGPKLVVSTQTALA

For the compound `CC(=O)NN=C(C)c1ccccn1.[Cl][Cu][Cl]` [compound 1, [dichloro(2-acetylpyridineacetyl-hydrazone)copper(II)]], in the experiment on EB-CT-DNA, the “apparent binding constant Kapp (EB-CT-DNA)” value worked out at 234000 M⁻¹; the “number of binding sites n (EB-CT-DNA)” value is 1.04 ± 0.01; the “Stern-Volmer quenching constant Ksv (EB-CT-DNA)” value is reported as “(2.35 ± 0.03) × 10^3 M^−1”; the “binding constant K (EB-CT-DNA, Scatchard)” value is on record as “(0.35 ± 0.01) × 10^4 M^−1”. In the experiment on EB-CT-DNA, the “hypochromism in the EB-CT-DNA emission band at 602 nm” value is “up to 24%”. Also, the “alteration in the electrophoretic mobility of pUC 19 plasmid DNA” value with pUC 19 plasmid DNA is “no alteration in the electrophoretic mobility”. Moreover, in experiment [1], the “decrease of BSA synchronous fluorescence intensity at Δλ = 60 nm” value is on record as ~ 41% and the “decrease of BSA synchronous fluorescence intensity at Δλ = 15 nm” value is reported as ~ 16%. Further, the “ROS levels in U87 cells compared with T98 cells” value with U87 cells is reported as “higher levels of ROS in U87 cells”. The “ROS levels in MRC5 cells compared with glioma cells” value with MRC5 cells was “lower levels of ROS in MRC5 cells”.

Take `CC(=O)NN=C(c1ccccc1)c1ccccn1.[Cl][Cu][Cl]` [compound 2, [dichloro(2-benzoylpyridineacetylhydrazone)copper(II)]]: in the experiment on EB-CT-DNA, the “apparent binding constant Kapp (EB-CT-DNA)” value is 207000 M⁻¹; the “number of binding sites n (EB-CT-DNA)” value came to 0.81 ± 0.02; the “Stern-Volmer quenching constant Ksv (EB-CT-DNA)” value was “(2.05 ± 0.03) × 10^3 M^−1”; the “binding constant K (EB-CT-DNA, Scatchard)” value was “(0.38 ± 0.01) × 10^3 M^−1”. In addition, the “hypochromism in the EB-CT-DNA emission band at 602 nm” value with EB-CT-DNA was no more than 20%. Also, the “alteration in the electrophoretic mobility of pUC 19 plasmid DNA” value in the experiment on pUC 19 plasmid DNA is reported as “no alteration in the electrophoretic mobility”. Moreover, in experiment [1], the “decrease of BSA synchronous fluorescence intensity at Δλ = 60 nm” value is ~ 44% and the “decrease of BSA synchronous fluorescence intensity at Δλ = 15 nm” value is on record as ~ 18%. Moreover, the “ROS levels in U87 cells compared with T98 cells” value with U87 cells is recorded as “equally effective in both cell lineages”. For the same compound, the “ROS levels in MRC5 cells compared with glioma cells” value in the experiment on MRC5 cells is on record as “lower levels of ROS in MRC5 than in T98 glioma cells”.
